Measured values from patent US7824847B2, “Tissue preservation method with polyoxyethylene/polyoxypropylene copolymer” (Regents of the University of California, priority 2003, dated 2010).

Tested on: bovine corneal endothelial cells
Assay: Evaluation of the endothelial cell layer in bovine corneas stored in preservation media at 4° C. (Calcein AM viability staining)
Format: cell-based
Settings: DMSO at 0.5%
Protocol: Evaluations of the endothelial cell layer in bovine corneas in different media. post-incubation survival utility or usefulness for transplantation is defined as less than 3% dying and less than 1.5% missing. Missing cells leave a gap in the layer; calcein-AM staining for esterase activity is used to determine cell health. Transplant surgeons typically use missing cell counts and morphology alone as the index of health and post-incubation survival utility.
Bovine eyes were obtained from Rancho Veal, Petaluma, Calif. Two to 3 hours elapsed between death of the cattle and excision of the cornea with a 1 to 2 millimeter (mm) scleral rim from the enucleated eyes. […]
The viability of the corneal endothelium was quantified with the vital stain Calcein AM (Molecular Probes, Eugene, Oreg.). The hydrophobic and non-fluorescent Calcein AM readily diffuses across the plasma membrane and into the cytoplasm. […] The bright nuclei are easily counted. […] A Zeiss IM-35 inverted fluorescence microscope (Thornwood, N.Y.) equipped with excitation and emission filters for Green Fluorescent Protein (filter set XF100-2 from Omega Optical, Brattleboro, Vt.) was used to illuminate the half cornea. […]
For analysis, each photograph was overlaid with a sheet of transparency film. A felt-tip lab pen was used to mark cells as they were counted and scored as bright (live), dim (dying), or dark (dead or missing). […]

Question: With `C[S+](C)[O-]` [DMSO, dimethylsulfoxide] as the compound, how does the “effect on corneal endothelial cell survival” value read?
Answer: The value was “no effect”.
